pEC50 data for 81 targets are collected here from the supplement of paper PMC6411743.

Sequence of UniProt Q9NR50 (Q9NR50 whole entry): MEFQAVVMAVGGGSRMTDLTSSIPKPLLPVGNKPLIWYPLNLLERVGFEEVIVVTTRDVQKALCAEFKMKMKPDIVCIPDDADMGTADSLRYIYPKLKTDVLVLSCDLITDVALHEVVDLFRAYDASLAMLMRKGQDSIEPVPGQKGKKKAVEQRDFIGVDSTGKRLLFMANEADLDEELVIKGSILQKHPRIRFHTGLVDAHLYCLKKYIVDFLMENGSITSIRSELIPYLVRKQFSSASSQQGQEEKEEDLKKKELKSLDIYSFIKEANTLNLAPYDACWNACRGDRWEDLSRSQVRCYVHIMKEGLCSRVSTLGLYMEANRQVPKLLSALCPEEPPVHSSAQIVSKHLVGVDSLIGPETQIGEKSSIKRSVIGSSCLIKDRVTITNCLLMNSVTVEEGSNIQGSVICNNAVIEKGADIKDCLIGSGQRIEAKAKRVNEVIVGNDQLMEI
Sequence of UniProt Q8N0X4 (Q8N0X4 whole entry): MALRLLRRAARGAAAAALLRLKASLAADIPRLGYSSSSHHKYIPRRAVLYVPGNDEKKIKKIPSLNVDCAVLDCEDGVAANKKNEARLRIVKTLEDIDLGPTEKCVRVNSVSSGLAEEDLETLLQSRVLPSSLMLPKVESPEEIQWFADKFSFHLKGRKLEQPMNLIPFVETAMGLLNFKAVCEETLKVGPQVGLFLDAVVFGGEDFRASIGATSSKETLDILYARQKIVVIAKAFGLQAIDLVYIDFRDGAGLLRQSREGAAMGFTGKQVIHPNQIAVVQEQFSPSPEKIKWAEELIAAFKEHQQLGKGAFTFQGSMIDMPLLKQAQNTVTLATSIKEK
Sequence of UniProt Q9UHQ9 (Q9UHQ9 whole entry): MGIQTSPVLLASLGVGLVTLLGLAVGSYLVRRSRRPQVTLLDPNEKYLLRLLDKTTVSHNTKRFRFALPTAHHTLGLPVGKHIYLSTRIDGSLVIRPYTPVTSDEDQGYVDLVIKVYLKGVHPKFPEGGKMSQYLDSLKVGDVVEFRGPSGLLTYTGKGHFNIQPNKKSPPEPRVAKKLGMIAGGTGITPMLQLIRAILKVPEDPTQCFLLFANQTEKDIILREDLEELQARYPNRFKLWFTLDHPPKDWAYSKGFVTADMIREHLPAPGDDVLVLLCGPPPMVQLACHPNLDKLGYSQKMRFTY
Sequence of UniProt P78344 (P78344 whole entry): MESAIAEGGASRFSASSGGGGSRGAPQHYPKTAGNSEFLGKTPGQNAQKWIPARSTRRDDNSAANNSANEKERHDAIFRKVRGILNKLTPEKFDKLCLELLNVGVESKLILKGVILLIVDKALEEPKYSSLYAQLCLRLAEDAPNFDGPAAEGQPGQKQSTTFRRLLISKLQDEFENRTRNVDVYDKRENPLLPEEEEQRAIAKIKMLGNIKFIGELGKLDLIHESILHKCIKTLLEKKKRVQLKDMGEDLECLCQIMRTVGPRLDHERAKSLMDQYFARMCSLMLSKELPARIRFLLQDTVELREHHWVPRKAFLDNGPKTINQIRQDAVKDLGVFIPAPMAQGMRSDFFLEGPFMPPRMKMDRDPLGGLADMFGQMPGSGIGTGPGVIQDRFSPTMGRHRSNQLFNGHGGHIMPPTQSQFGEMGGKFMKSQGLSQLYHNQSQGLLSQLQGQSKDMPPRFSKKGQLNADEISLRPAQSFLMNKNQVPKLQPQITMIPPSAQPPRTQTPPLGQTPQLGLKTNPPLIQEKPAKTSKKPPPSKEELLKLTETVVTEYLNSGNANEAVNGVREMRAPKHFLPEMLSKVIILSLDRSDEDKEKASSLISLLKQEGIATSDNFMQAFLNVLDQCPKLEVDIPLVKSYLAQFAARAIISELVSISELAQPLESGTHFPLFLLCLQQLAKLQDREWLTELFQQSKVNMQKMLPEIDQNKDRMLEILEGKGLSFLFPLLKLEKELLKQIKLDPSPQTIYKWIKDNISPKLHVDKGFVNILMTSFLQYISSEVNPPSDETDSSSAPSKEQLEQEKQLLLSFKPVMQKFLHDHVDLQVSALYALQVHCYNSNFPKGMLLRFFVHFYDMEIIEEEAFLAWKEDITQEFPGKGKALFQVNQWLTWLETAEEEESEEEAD
Sequence of UniProt Q9BUP0 (Q9BUP0 whole entry): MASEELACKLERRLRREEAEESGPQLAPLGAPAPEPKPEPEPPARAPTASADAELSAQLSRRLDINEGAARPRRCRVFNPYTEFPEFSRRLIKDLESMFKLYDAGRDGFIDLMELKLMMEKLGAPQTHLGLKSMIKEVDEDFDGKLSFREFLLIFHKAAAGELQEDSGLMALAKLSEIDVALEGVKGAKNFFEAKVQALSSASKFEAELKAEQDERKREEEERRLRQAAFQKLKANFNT
Sequence of UniProt Q6P158 (Q6P158 whole entry): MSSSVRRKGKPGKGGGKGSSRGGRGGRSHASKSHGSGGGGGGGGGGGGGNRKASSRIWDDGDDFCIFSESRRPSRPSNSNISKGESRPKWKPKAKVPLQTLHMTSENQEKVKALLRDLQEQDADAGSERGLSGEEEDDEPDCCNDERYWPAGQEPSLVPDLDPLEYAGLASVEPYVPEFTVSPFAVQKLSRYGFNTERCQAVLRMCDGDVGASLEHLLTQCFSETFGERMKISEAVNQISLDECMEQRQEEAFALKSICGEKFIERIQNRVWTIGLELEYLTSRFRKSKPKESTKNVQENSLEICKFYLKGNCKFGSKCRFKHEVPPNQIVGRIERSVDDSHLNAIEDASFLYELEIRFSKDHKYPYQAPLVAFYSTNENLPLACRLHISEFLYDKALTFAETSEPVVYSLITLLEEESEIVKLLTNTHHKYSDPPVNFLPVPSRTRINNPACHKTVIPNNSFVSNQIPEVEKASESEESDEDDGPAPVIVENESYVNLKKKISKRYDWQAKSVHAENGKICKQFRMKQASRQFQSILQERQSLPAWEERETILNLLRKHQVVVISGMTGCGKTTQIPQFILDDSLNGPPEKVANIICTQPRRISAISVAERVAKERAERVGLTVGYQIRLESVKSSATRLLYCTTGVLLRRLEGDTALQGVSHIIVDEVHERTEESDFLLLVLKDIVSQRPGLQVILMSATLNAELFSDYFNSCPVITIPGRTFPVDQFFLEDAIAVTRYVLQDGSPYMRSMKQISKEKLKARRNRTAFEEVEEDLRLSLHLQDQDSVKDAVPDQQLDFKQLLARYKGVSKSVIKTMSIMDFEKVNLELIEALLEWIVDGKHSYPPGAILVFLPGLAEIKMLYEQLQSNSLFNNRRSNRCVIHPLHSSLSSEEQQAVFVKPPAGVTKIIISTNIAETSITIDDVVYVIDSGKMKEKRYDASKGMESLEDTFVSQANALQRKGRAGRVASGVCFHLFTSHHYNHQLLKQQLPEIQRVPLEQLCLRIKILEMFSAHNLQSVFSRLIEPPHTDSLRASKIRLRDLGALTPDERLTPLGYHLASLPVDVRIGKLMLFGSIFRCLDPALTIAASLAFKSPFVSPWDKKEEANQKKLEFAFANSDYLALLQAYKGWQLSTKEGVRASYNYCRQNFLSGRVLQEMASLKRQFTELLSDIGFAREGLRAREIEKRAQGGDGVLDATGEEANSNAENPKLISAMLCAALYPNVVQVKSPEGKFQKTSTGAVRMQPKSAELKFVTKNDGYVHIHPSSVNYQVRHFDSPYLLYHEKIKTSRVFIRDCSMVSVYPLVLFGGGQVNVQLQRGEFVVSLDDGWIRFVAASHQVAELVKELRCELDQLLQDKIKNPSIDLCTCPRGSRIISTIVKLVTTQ
Sequence of UniProt Q14203 (Q14203 whole entry): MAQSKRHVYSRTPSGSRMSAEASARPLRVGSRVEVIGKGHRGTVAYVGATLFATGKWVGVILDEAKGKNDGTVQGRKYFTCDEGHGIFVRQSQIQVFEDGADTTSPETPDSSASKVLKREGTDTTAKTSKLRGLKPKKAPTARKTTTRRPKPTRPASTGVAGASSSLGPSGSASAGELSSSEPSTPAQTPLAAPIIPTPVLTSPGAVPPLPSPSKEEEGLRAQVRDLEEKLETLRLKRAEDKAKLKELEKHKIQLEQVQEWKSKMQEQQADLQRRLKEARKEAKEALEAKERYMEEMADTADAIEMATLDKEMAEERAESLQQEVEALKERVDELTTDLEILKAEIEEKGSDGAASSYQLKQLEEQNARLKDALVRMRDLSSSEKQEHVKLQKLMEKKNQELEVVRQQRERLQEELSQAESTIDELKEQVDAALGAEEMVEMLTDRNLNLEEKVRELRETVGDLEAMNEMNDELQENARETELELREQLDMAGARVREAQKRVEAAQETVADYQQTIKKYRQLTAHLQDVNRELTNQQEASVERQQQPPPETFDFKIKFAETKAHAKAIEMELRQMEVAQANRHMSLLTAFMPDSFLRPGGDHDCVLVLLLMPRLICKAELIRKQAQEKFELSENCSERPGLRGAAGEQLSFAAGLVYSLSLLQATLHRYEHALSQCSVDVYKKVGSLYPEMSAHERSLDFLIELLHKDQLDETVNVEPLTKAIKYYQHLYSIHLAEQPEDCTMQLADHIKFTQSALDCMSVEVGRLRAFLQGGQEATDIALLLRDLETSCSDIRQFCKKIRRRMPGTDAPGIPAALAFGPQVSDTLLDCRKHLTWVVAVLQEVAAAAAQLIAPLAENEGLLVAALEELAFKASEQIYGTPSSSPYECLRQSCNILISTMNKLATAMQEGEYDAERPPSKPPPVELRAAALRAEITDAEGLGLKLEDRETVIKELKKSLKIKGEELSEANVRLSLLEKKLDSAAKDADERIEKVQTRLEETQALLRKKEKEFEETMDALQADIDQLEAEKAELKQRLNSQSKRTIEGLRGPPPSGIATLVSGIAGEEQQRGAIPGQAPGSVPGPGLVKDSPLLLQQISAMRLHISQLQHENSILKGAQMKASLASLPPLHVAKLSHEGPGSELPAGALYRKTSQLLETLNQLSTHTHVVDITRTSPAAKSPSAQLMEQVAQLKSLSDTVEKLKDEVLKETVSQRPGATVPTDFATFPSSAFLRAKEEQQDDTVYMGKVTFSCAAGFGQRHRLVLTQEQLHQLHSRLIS

Compound in this assay: Nc1ncnc2c1ncn2[C@@H]1O[C@H](COP(=O)(O)OP(=O)(O)OP(=O)(O)O)[C@@H](O)[C@H]1O [adenosine triphosphate]
Briefly: pEC50 of ATP-induced change in protein thermal stability (2D-TPP). Here is the method: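 2D thermal proteome profiling in mechanically disrupted Jurkat crude lysate. Lysate was treated 10 min at room temperature with Na-ATP (0, 0.005, 0.05, 0.5, 2 mM), heated to 12 temperatures (42-63.9 °C) for 3 min, and soluble protein was quantified by TMT10 LC-MS/MS. pEC50 is the median over replicates of dose-response fits at the lowest temperature showing a fold change of at least 1.5 (FDR-controlled hits).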
As usually defined, the pEC50 is −log10 of the EC50, conventionally taken in molar units. As to “CDK2 (effect direction: stabilized) (UniProt P24941)”, the pEC50 was found to be 3.13.
In the case of “CDK5 (effect direction: stabilized) (UniProt Q00535)”, the pEC50 is 3.46.
The result for “CDK9 (effect direction: stabilized) (UniProt P50750)” reads greater than 5.3; that for “CDKAL1 (effect direction: destabilized) (UniProt Q5VV42)”, 2.9; that for “CEBPZ (effect direction: destabilized) (UniProt Q03701)”, 3.06.
The result for “CENPE (effect direction: stabilized) (UniProt Q02224)” reads 4.04; that for “CHD1 (effect direction: stabilized) (UniProt O14646)”, less than 2.7; that for “CHD1L (effect direction: stabilized) (UniProt Q86WJ1)”, 3.74.
As to “CHERP (effect direction: stabilized) (UniProt Q8IWX8)”, the pEC50 was 3.05.
The result for “CHKA (effect direction: stabilized) (UniProt P35790)” reads 3.49.
The same measure for “CHORDC1 (effect direction: stabilized) (UniProt Q9UHD1)”: less than 2.7; for “CINP (effect direction: stabilized) (UniProt Q9BW66)”: 2.98.
“CLCN3 (effect direction: stabilized) (UniProt P51790)”: the pEC50 came to 3.23.
The same measure for “CLCN7 (effect direction: stabilized) (UniProt P51798)”: 3.4; for “CLIC1 (effect direction: stabilized) (UniProt O00299)”: less than 2.7.
Turning to “CLN5 (effect direction: stabilized) (UniProt O75503)”, the negative-log EC50 (pEC50) came out at 3.38.
The result for “CLYBL (effect direction: destabilized) (UniProt Q8N0X4)” reads 2.92.
The result for “CMPK1 (effect direction: stabilized) (UniProt P30085)” reads 3.27; that for “CNOT1 (effect direction: stabilized) (UniProt A5YKK6)”, 3.41; that for “CNOT2 (effect direction: stabilized) (UniProt Q9NZN8)”, 2.77.
The result for “CNOT10 (effect direction: stabilized) (UniProt Q9H9A5)” reads 3.17.
As to “COPB2 (effect direction: stabilized) (UniProt P35606)”, the pEC50 was less than 2.7.
The result for “COPS5 (effect direction: stabilized) (UniProt Q92905)” reads less than 2.7.
The result for “COPS6 (effect direction: stabilized) (UniProt Q7L5N1)” reads less than 2.7; that for “CPSF1 (effect direction: stabilized) (UniProt Q10570)”, less than 2.7.
The result for “CPSF2 (effect direction: stabilized) (UniProt Q9P2I0)” reads less than 2.7; that for “CRLF3 (effect direction: stabilized) (UniProt Q8IUI8)”, less than 2.7.
Turning to “CS (effect direction: stabilized) (UniProt O75390)”, the pEC50 was less than 2.7.
“CSE1L (effect direction: stabilized) (UniProt P55060)”: the negative-log EC50 (pEC50) turned out to be 3.69.
The result for “CTBP1 (effect direction: stabilized) (UniProt Q13363)” reads 2.87; that for “CTBS (effect direction: stabilized) (UniProt Q01459)”, 2.87; that for “CTNNBL1 (effect direction: stabilized) (UniProt Q8WYA6)”, 3.08.
The result for “CTSA (effect direction: stabilized) (UniProt P10619)” reads 3.12.
The result for “CTSB (effect direction: stabilized) (UniProt P07858)” reads 3.34; that for “CTSD (effect direction: stabilized) (UniProt P07339)”, 3.11; that for “CYB5R1 (effect direction: stabilized) (UniProt Q9UHQ9)”, less than 2.7.
As for “CYB5R3 (effect direction: stabilized) (UniProt P00387)”, the pEC50 was found to be 4.02.
The result for “DARS2 (effect direction: stabilized) (UniProt Q6PI48)” reads 4.12.
The same measure for “DCPS (effect direction: stabilized) (UniProt Q96C86)”: less than 2.7.
The same measure for “DCTN1 (effect direction: stabilized) (UniProt Q14203)”: less than 2.7.
“DDB2 (effect direction: stabilized) (UniProt Q92466)”: the pEC50 turned out to be 3.2.
The result for “DDHD2 (effect direction: stabilized) (UniProt O94830)” reads less than 2.7.
The same measure for “DDX11L8 (effect direction: stabilized) (UniProt A8MPP1)”: 3.15; for “DDX19A (effect direction: stabilized) (UniProt Q9NUU7)”: 3.75; for “DDX20 (effect direction: stabilized) (UniProt Q9UHI6)”: 3.48.
The result for “DDX49 (effect direction: stabilized) (UniProt Q9Y6V7)” reads 3.93; that for “DDX56 (effect direction: stabilized) (UniProt Q9NY93)”, 3.68.
With “DECR1 (effect direction: stabilized) (UniProt Q16698)”, the pEC50 is less than 2.7.
The same measure for “DERA (effect direction: stabilized) (UniProt Q9Y315)”: 3.16.
The same measure for “DHCR24 (effect direction: stabilized) (UniProt Q15392)”: 3.66; for “DHX16 (effect direction: stabilized) (UniProt O60231)”: 4.14.
The same measure for “DHX36 (effect direction: stabilized) (UniProt Q9H2U1)”: 3.99.
Take “DHX40 (effect direction: stabilized) (UniProt Q8IX18)”: the pEC50 came out at 3.44.
Consider “DHX57 (effect direction: stabilized) (UniProt Q6P158)”, for which the pEC50 turned out to be 4.17.
The same measure for “DIS3L2 (effect direction: stabilized) (UniProt Q8IYB7)”: 3.42.
For “DLGAP5 (effect direction: destabilized) (UniProt Q15398)”, the pEC50 was found to be 2.82.
The result for “DNAJA2 (effect direction: stabilized) (UniProt O60884)” reads less than 2.7; that for “DNAJC13 (effect direction: stabilized) (UniProt O75165)”, 2.86.
The same measure for “DNMT1 (effect direction: destabilized) (UniProt P26358)”: 2.98; for “DRAP1 (effect direction: destabilized) (UniProt Q14919)”: less than 2.7; for “DUS3L (effect direction: stabilized) (UniProt Q96G46)”: 2.91.
The result for “DUSP12 (effect direction: stabilized) (UniProt Q9UNI6)” reads less than 2.7; that for “DYNC1H1 (effect direction: stabilized) (UniProt Q14204)”, 3.39; that for “DYRK1A (effect direction: stabilized) (UniProt Q13627)”, 3.49.
For the target “EDF1 (effect direction: stabilized) (UniProt O60869)”, the pEC50 is less than 2.7.
The result for “EEF1D (effect direction: stabilized) (UniProt P29692)” reads less than 2.7; that for “EEF1G (effect direction: stabilized) (UniProt P26641)”, less than 2.7; that for “EFHD1 (effect direction: destabilized) (UniProt Q9BUP0)”, 3.18.
With “EFHD2 (effect direction: destabilized) (UniProt Q96C19)”, the pEC50 worked out at 3.08.
The result for “EHD4 (effect direction: stabilized) (UniProt Q9H223)” reads 3.86; that for “EIF2B2 (effect direction: stabilized) (UniProt P49770)”, 2.83; that for “EIF2B3 (effect direction: stabilized) (UniProt Q9NR50)”, 3.82.
Take “EIF3A (effect direction: destabilized) (UniProt Q14152)”: the pEC50 is 4.48.
The same measure for “EIF3K (effect direction: stabilized) (UniProt Q9UBQ5)”: less than 2.7.
The result for “EIF3L (effect direction: stabilized) (UniProt Q9Y262)” reads less than 2.7.
The result for “EIF4A3 (effect direction: stabilized) (UniProt P38919)” reads 3.68.
For the target “EIF4G1 (effect direction: stabilized) (UniProt Q04637)”, the pEC50 turned out to be 2.71.
The result for “EIF4G2 (effect direction: stabilized) (UniProt P78344)” reads less than 2.7.
The same measure for “EIF5 (effect direction: stabilized) (UniProt P55010)”: less than 2.7; for “ELAVL1 (effect direction: stabilized) (UniProt Q15717)”: 3.02; for “EMG1 (effect direction: stabilized) (UniProt Q92979)”: 5.25.
